Measured values reported in PubChem BioAssay (NCI).
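Exposure lasted 48 hours, with cells grown in 96-well plates and compounds tested at five concentrations. TGI: total growth inhibition.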

Assays:
Experiment in all cases: growth of human tumour cells (NCI), 48 h
786-0 renal = test system: 786-0 renal
A498 renal = test system: A498 renal
A549 NSCLC = test system: A549 NSCLC
ACHN renal = test system: ACHN renal
BT-549 breast = test system: BT-549 breast
CAKI-1 renal = test system: CAKI-1 renal
CCRF-CEM leukemia = test system: CCRF-CEM leukemia
COLO 205 colon = test system: COLO 205 colon
DU-145 prostate = test system: DU-145 prostate
EKVX NSCLC = test system: EKVX NSCLC
HCT-116 colon = test system: HCT-116 colon
HCT-15 colon = test system: HCT-15 colon
HL-60(TB) leukemia = test system: HL-60(TB) leukemia
HOP-62 NSCLC = test system: HOP-62 NSCLC
HOP-92 NSCLC = test system: HOP-92 NSCLC
HS 578T breast = test system: HS 578T breast
HT29 colon = test system: HT29 colon
IGROV1 ovarian = test system: IGROV1 ovarian
K-562 leukemia = test system: K-562 leukemia
KM12 colon = test system: KM12 colon
LOX IMVI melanoma = test system: LOX IMVI melanoma
M14 melanoma = test system: M14 melanoma
MALME-3M melanoma = test system: MALME-3M melanoma
MCF7 breast = test system: MCF7 breast
MDA-MB-231 breast = test system: MDA-MB-231 breast
MDA-MB-435 = test system: MDA-MB-435
MDA-N = test system: MDA-N
MOLT-4 leukemia = test system: MOLT-4 leukemia
NCI-H226 lung = test system: NCI-H226 lung
NCI-H460 lung = test system: NCI-H460 lung
NCI-H522 lung = test system: NCI-H522 lung
NCI/ADR-RES ovarian = test system: NCI/ADR-RES ovarian
OVCAR-3 ovarian = test system: OVCAR-3 ovarian
OVCAR-4 ovarian = test system: OVCAR-4 ovarian
OVCAR-5 ovarian = test system: OVCAR-5 ovarian
OVCAR-8 ovarian = test system: OVCAR-8 ovarian
PC-3 prostate = test system: PC-3 prostate
RPMI-8226 leukemia = test system: RPMI-8226 leukemia
RXF 393 renal = test system: RXF 393 renal
SF-268 CNS = test system: SF-268 CNS
SF-295 CNS = test system: SF-295 CNS
SF-539 CNS = test system: SF-539 CNS
SK-MEL-2 melanoma = test system: SK-MEL-2 melanoma
SK-MEL-28 melanoma = test system: SK-MEL-28 melanoma
SK-MEL-5 melanoma = test system: SK-MEL-5 melanoma
SK-OV-3 ovarian = test system: SK-OV-3 ovarian
SN12C renal = test system: SN12C renal
SNB-19 CNS = test system: SNB-19 CNS
SNB-75 CNS = test system: SNB-75 CNS
SR leukemia = test system: SR leukemia
SW-620 colon = test system: SW-620 colon
T-47D breast = test system: T-47D breast
TK-10 renal = test system: TK-10 renal
U251 CNS = test system: U251 CNS
UACC-257 melanoma = test system: UACC-257 melanoma
UACC-62 melanoma = test system: UACC-62 melanoma
UO-31 renal = test system: UO-31 renal
HCC-2998 colon = test system: HCC-2998 colon
NCI-H23 lung = test system: NCI-H23 lung

CC(C)(CN)SCc1ccccc1
TGI (786-0 renal): > 100 µM | TGI (A498 renal): > 100 µM | TGI (A549 NSCLC): > 100 µM | TGI (ACHN renal): > 100 µM | TGI (BT-549 breast): > 100 µM | TGI (CAKI-1 renal): > 100 µM | TGI (CCRF-CEM leukemia): > 100 µM | TGI (COLO 205 colon): > 100 µM | TGI (DU-145 prostate): > 100 µM | TGI (EKVX NSCLC): > 100 µM | TGI (HCT-116 colon): > 100 µM | TGI (HCT-15 colon): > 100 µM | TGI (HL-60(TB) leukemia): > 100 µM | TGI (HOP-62 NSCLC): > 100 µM | TGI (HOP-92 NSCLC): > 100 µM | TGI (HS 578T breast): > 100 µM | TGI (HT29 colon): > 100 µM | TGI (IGROV1 ovarian): > 100 µM | TGI (K-562 leukemia): > 100 µM | TGI (KM12 colon): > 100 µM | TGI (LOX IMVI melanoma): > 100 µM | TGI (M14 melanoma): > 100 µM | TGI (MALME-3M melanoma): > 100 µM | TGI (MCF7 breast): > 100 µM | TGI (MDA-MB-231 breast): > 100 µM | TGI (MDA-MB-435): > 100 µM | TGI (MDA-N): > 100 µM | TGI (MOLT-4 leukemia): > 100 µM | TGI (NCI-H226 lung): > 100 µM | TGI (NCI-H460 lung): > 100 µM | TGI (NCI-H522 lung): > 100 µM | TGI (NCI/ADR-RES ovarian): > 100 µM | TGI (OVCAR-3 ovarian): > 100 µM | TGI (OVCAR-4 ovarian): > 100 µM | TGI (OVCAR-5 ovarian): > 100 µM | TGI (OVCAR-8 ovarian): > 100 µM | TGI (PC-3 prostate): > 100 µM | TGI (RPMI-8226 leukemia): > 100 µM | TGI (RXF 393 renal): > 100 µM | TGI (SF-268 CNS): > 100 µM | TGI (SF-295 CNS): > 100 µM | TGI (SF-539 CNS): > 100 µM | TGI (SK-MEL-2 melanoma): > 100 µM | TGI (SK-MEL-28 melanoma): > 100 µM | TGI (SK-MEL-5 melanoma): > 100 µM | TGI (SK-OV-3 ovarian): > 100 µM | TGI (SN12C renal): > 100 µM | TGI (SNB-19 CNS): > 100 µM | TGI (SNB-75 CNS): > 100 µM | TGI (SR leukemia): > 100 µM | TGI (SW-620 colon): > 100 µM | TGI (T-47D breast): > 100 µM | TGI (TK-10 renal): > 100 µM | TGI (U251 CNS): > 100 µM | TGI (UACC-257 melanoma): > 100 µM | TGI (UACC-62 melanoma): > 100 µM | TGI (UO-31 renal): > 100 µM

COc1ccc(N2C(=O)C3c4[nH]c5ccc(OCc6ccccc6)cc5c4C4CCC(C(C)C)CC4C3C2=O)cc1 (stereo unspecified)
TGI (786-0 renal): > 47.6 µM | TGI (A498 renal): 25.4 µM | TGI (A549 NSCLC): > 100 µM | TGI (ACHN renal): > 30.4 µM | TGI (BT-549 breast): > 60.4 µM | TGI (CAKI-1 renal): > 59.6 µM | TGI (CCRF-CEM leukemia): 31.3 µM | TGI (COLO 205 colon): > 100 µM | TGI (DU-145 prostate): > 100 µM | TGI (EKVX NSCLC): > 100 µM | TGI (HCC-2998 colon): > 100 µM | TGI (HCT-116 colon): > 100 µM | TGI (HCT-15 colon): > 100 µM | TGI (HL-60(TB) leukemia): 23.9 µM | TGI (HOP-62 NSCLC): 36.4 µM | TGI (HOP-92 NSCLC): 93.2 µM | TGI (HS 578T breast): > 49.8 µM | TGI (HT29 colon): > 100 µM | TGI (IGROV1 ovarian): > 80.6 µM | TGI (K-562 leukemia): > 68.3 µM | TGI (KM12 colon): > 100 µM | TGI (LOX IMVI melanoma): > 100 µM | TGI (M14 melanoma): > 100 µM | TGI (MALME-3M melanoma): > 100 µM | TGI (MCF7 breast): > 100 µM | TGI (MDA-MB-231 breast): 37.9 µM | TGI (MDA-MB-435): > 100 µM | TGI (MDA-N): > 100 µM | TGI (MOLT-4 leukemia): > 71.7 µM | TGI (NCI-H226 lung): 42.9 µM | TGI (NCI-H23 lung): > 45.3 µM | TGI (NCI-H460 lung): > 45.8 µM | TGI (NCI-H522 lung): 73.4 µM | TGI (NCI/ADR-RES ovarian): > 100 µM | TGI (OVCAR-3 ovarian): > 100 µM | TGI (OVCAR-4 ovarian): > 100 µM | TGI (OVCAR-5 ovarian): > 100 µM | TGI (OVCAR-8 ovarian): > 100 µM | TGI (PC-3 prostate): > 100 µM | TGI (RPMI-8226 leukemia): > 100 µM | TGI (RXF 393 renal): 32.9 µM | TGI (SF-268 CNS): > 100 µM | TGI (SF-295 CNS): 29.3 µM | TGI (SF-539 CNS): 23.5 µM | TGI (SK-MEL-2 melanoma): 40.3 µM | TGI (SK-MEL-28 melanoma): > 100 µM | TGI (SK-MEL-5 melanoma): > 100 µM | TGI (SK-OV-3 ovarian): 43 µM | TGI (SN12C renal): > 100 µM | TGI (SNB-19 CNS): 34.9 µM | TGI (SNB-75 CNS): 10.4 µM | TGI (SR leukemia): 22.9 µM | TGI (SW-620 colon): > 100 µM | TGI (T-47D breast): > 100 µM | TGI (TK-10 renal): > 80.4 µM | TGI (U251 CNS): > 73.1 µM | TGI (UACC-257 melanoma): > 100 µM | TGI (UACC-62 melanoma): > 51.7 µM | TGI (UO-31 renal): > 100 µM
